Measurements from patent publication US20170283862A1, “GENETIC TESTING FOR PREDICTING RESISTANCE OF KLEBSIELLA SPECIES AGAINST ANTIMICROBIAL AGENTS” (priority 2014, published 2017).

Tested on: K. pneumoniae isolates
Experiment: Gene dosage effects: AUC of normalized median coverage per gene, resistant vs susceptible isolates
Set-up: unit not given here
Conditions: best MIC break
Description: Since a potential reason for drug resistance is gene duplication, gene dose dependency was evaluated. For each sample the genomic coverage for each position was determined using BED Tools. Gene ranges were extracted from the reference assemblies NC_009648.gff and NC_016612.gff and the normalized median coverage per gene was calculated. To compare low- and high-resistance isolates the best area under the curve (AUC) value was computed.
To estimate the difference in coverage we calculated AUC values for the normalized median coverage per gene in the two groups.

[1] = gene KPN_00957: 1081235-1081342
[2] = gene KPN_01607: 1784144-1785004
[3] = gene KPN_01784: 1966562-1967182
[4] = gene KPN_02272: 2484450-2485832
[5] = gene KPN_03336: 3652949-3653470
[6] = gene KPN_04541: 4973659-4974345
[7] = gene KPN_01776: 1957110-1958672
[8] = gene KPN_01790: 1972135-1973631

| Compound | BEST_BREAK [1] | BEST_BREAK [2] | BEST_BREAK [3] | BEST_BREAK [4] | BEST_BREAK [5] | BEST_BREAK (gene KPN_04540: 4971080-4973572) | BEST_BREAK [6] | BEST_BREAK (gene rmlC: 2715683-2716237) | BEST_BREAK (gene rmlC: 2723257-2723811) | BEST_BREAK (gene ygbI: 1783401-1784123) | BEST_BREAK [7] | BEST_BREAK [8] | BEST_BREAK (gene ygbJ: 1782199-1783101) | BEST_BREAK (gene ygbK: 1780922-1782187) | BEST_BREAK (gene KPN_00596: 673027-673989) | BEST_BREAK (gene KPN_01766: 1947966-1948751) | BEST_BREAK (gene KPN_01767: 1948966-1949805) | BEST_BREAK (gene KPN_01772: 1953630-1954052) | BEST_BREAK (gene KPN_01773: 1954090-1955208) | BEST_BREAK (gene stbA: 300128-300664) |
| --- | --- | --- | --- | --- | --- | --- | --- | --- | --- | --- | --- | --- | --- | --- | --- | --- | --- | --- | --- | --- |
| CC1(C)S[C@@H]2[C@H](NC(=O)[C@H](N)c3ccccc3)C(=O)N2[C@H]1C(=O)O [Ampicillin] | 128.1 | 128.1 | – | – | – | – | – | – | – | – | – | – | – | – | – | – | – | – | – | – |
| Amoxicillin/K Clavulanate | 64 | 8 | 32 | 64 | 32 | 32 | 32 | 64.1 | 64.1 | 8 | – | – | – | – | – | – | – | – | – | – |
| Ampicillin/Sulbactam | 32 | 64.1 | 64.1 | – | – | – | 64.1 | – | 64.1 | 64.1 | 64.1 | 64.1 | 64.1 | 64.1 | – | – | – | – | – | – |
| Gentamicin | 1 | 1 | 1 | – | – | – | – | – | – | – | 1 | – | – | – | 2 | – | – | – | – | – |
| Piperacillin/Tazobactam | 8 | 128 | 128 | 256.1 | 256 | – | 64 | – | 256.1 | 128 | 128 | 128 | 128 | 128 | – | 128 | 128 | 128 | 64 | 128 |
